These are literature values, as cited in PubChem BioAssay AID1259410 (Chemical Carcinogenesis Research Information System (CCRIS), 2018).

This data set relates to rodent tumor promotion studies, tumor incidence. In words: CCRIS tumor promotion studies.

Molecules are shown by their SMILES.

With `C#CCN(C)Cc1ccccc1`, the outcome (Carcinogen: AZOXYMETHANE, 25843-45-2, Doses [Carcinogen]: 7.4 MG/KG BW IN 0.9% SALINE 1/WK FOR 10 WK, Doses [Promoter]: 0, 50 MG/KG BW 1/2 D FOR 35 WK (STUDY DURATION: 35 WK), Route [Carcinogen]: SUBCUTANEOUS, Route [Promoter]: SUBCUTANEOUS, Species: RAT, Strain/Sex: WISTAR/MALE) is given as “colon: tumor”.
On to `CC[C@H](C)[C@H](NC(=O)[C@H](Cc1cnc[nH]1)NC(=O)[C@H](CCSC)NC(=O)[C@H](CS)NC(=O)[C@@H](NC(=O)CNC(=O)CNC(=O)[C@H](CC(N)=O)NC(=O)[C@H](CC(C)C)NC(=O)[C@H](CS)NC(=O)[C@H](Cc1ccc(O)cc1)NC(=O)CNC(=O)[C@H](CC(=O)O)NC(=O)[C@H](Cc1ccc(O)cc1)NC(=O)[C@H](CO)NC(=O)[C@H](CO)NC(=O)[C@@H]1CCCN1C(=O)[C@H](CS)NC(=O)CNC(=O)[C@@H]1CCCN1C(=O)[C@H](Cc1ccc(O)cc1)NC(=O)[C@H](CO)NC(=O)[C@@H](N)CC(N)=O)C(C)C)C(=O)N[C@@H](CCC(=O)O)C(=O)N[C@@H](CO)C(=O)N[C@@H](CC(C)C)C(=O)N[C@@H](CC(=O)O)C(=O)N[C@@H](CO)C(=O)N[C@@H](Cc1ccc(O)cc1)C(=O)N[C@H](C(=O)N[C@@H](CS)C(=O)N[C@@H](CC(N)=O)C(=O)N[C@@H](CS)C(=O)N[C@H](C(=O)N[C@H](C(=O)NCC(=O)N[C@@H](Cc1ccc(O)cc1)C(=O)N[C@@H](CO)C(=O)NCC(=O)N[C@@H](CC(=O)O)C(=O)N[C@@H](CCCNC(=N)N)C(=O)N[C@@H](CS)C(=O)N[C@@H](CCC(N)=O)C(=O)N[C@H](C(=O)N[C@@H](CCCNC(=N)N)C(=O)N[C@@H](CC(=O)O)C(=O)N[C@@H](CC(C)C)C(=O)N[C@@H](CCCNC(=N)N)C(=O)N[C@@H](Cc1c[nH]c2ccccc12)C(=O)N[C@@H](Cc1c[nH]c2ccccc12)C(=O)N[C@@H](CCC(=O)O)C(=O)N[C@@H](CC(C)C)C(=O)N[C@@H](CCCNC(=N)N)C(=O)O)[C@@H](C)O)[C@@H](C)CC)C(C)C)[C@@H](C)O`, for which the outcome (Carcinogen: 7,12-DIMETHYLBENZ[A]ANTHRACENE, 57-97-6, Doses [Carcinogen]: 0.5% IN ACETONE/HEAVY MINERAL OIL APPLIED TO BOTH CHEEK POUCHES 3/WK FOR 6 WK, Doses [Promoter]: 0, 10 UG/KG BW 3/WK FOR 6 WK BEGINNING 1 WK POST A SIALOADENECTOMY OR SHAM OPERATION AND 2 WK POST CARCINOGEN TREATMENT, Route [Carcinogen]: MUCOUS MEMBRANE, Route [Promoter]: MUCOUS MEMBRANE, Species: HAMSTER, Strain/Sex: SYRIAN/MALE) is “cheek pouch: tumor; forestomach: tumor”.
On to `Cc1ccc(O)c(O)c1`, for which the outcome (Carcinogen: N-METHYL-N'-NITRO-N-NITROSOGUANIDINE, 70-25-7, Doses [Carcinogen]: 150 MG/KG IN DMSO ONCE, Doses [Promoter]: 0, 1.5% IN DIET FOR 51 WK BEGINNING 1 WK AFTER CARCINOGEN DOSE (STUDY DURATION: 52 WK), Route [Carcinogen]: GAVAGE, Route [Promoter]: ORAL, Species: RAT, Strain/Sex: F344/MALE) is on record as “forestomach: squamous cell carcinoma; glandular stomach: adenocarcinoma”.
Turning to `CC(CCC(=O)NCCS(=O)(=O)O)[C@H]1CC[C@H]2[C@@H]3CC[C@@H]4C[C@H](O)CC[C@]4(C)[C@H]3C[C@H](O)[C@]12C` (stereo partly drawn), for the setting “Doses [Carcinogen]: IR, Route [Carcinogen]: RECTAL, Route [Promoter]: RECTAL, Species: RAT, Strain/Sex: MALE,FEMALE”, the outcome is recorded as “colon”.
Consider `O=[N+]([O-])c1ccc(F)c([N+](=O)[O-])c1`, for which the outcome by setting is: (Carcinogen: 7,12-DIMETHYLBENZ[A]ANTHRACENE, 57-97-6, Doses [Carcinogen]: 2.5 UG IN 200 µL ACETONE ONCE, Doses [Promoter]: 0, 0.1, 0.2% IN ACETONE/OLIVE OIL (4:1) 2/WK FOR 52 WK BEGINNING 2 WK POST CARCINOGEN DOSE (STUDY DURATION: 54 WK), Doses [Promoter]: 0, 0.1, 0.2% IN ACETONE/OLIVE OIL (4:1) 2/WK FOR 52 WK BEGINNING 2 WK POST CARCINOGEN DOSE (STUDY DURATION: 54 WK), Route [Carcinogen]: DERMAL, Route [Promoter]: DERMAL, Species: MOUSE, Strain/Sex: SENCAR/FEMALE) “skin: tumor”; (Carcinogen: 7,12-DIMETHYLBENZ[A]ANTHRACENE, 57-97-6, Doses [Carcinogen]: 100 NMOL ONCE, Doses [Promoter]: 0, 0.1, 0.2% 2/WK FOR 27 WK BEGINNING 2 WK POST CARCINOGEN DOSE (STUDY DURATION: 59 WK), Doses [Promoter]: 0, 0.1, 0.2% 2/WK FOR 27 WK BEGINNING 2 WK POST CARCINOGEN DOSE (STUDY DURATION: 59 WK), Route [Carcinogen]: DERMAL, Route [Promoter]: DERMAL, Species: MOUSE, Strain/Sex: SENCAR/FEMALE) “skin: tumor”.
With `C=C(C)[C@H]1CC=C(C)CC1`, the outcome is listed as “integumentary system (skin)” (Carcinogen: 7,12-DIMETHYLBENZ(A)ANTHRACENE, Doses [Carcinogen]: TOP, Route [Carcinogen]: DERMAL, Route [Promoter]: DERMAL, Species: MOUSE, Strain/Sex: MALE,FEMALE); “kidney: adenoma” (Carcinogen: N-ETHYL-N-HYDROXYETHYLNITROSAMINE, 13147-25-6, Doses [Carcinogen]: 500 PPM IN DRINKING WATER FOR 2 WK, Doses [Promoter]: 0, 150 MG/KG/D IN CORN OIL 5 D/WK FOR 30 WK BEGINNING POST CARCINOGEN TREATMENT (STUDY DURATION: 32 WK), Route [Carcinogen]: ORAL, Route [Promoter]: GAVAGE, Species: RAT, Strain/Sex: F344/MALE); “integumentary system (skin)” (Carcinogen: URETHANE, Doses [Carcinogen]: TOP, Route [Carcinogen]: DERMAL, Route [Promoter]: DERMAL, Species: MOUSE, Strain/Sex: MALE,FEMALE).
For `CN(C)C(=S)SSC(=S)N(C)C`, the outcome reads like this: (Carcinogen: 7,12-DIMETHYLBENZ[A]ANTHRACENE, 57-97-6, Doses [Carcinogen]: 52 UG IN 100 µL ACETONE ONCE, Doses [Promoter]: 0, 100 MG/KG BW IN 100 µL DMSO 3/WK FOR 51 WK BEGINNING 1 WK POST CARCINOGEN DOSE (STUDY DURATION: 52 WK), Route [Carcinogen]: DERMAL, Route [Promoter]: DERMAL, Species: MOUSE, Strain/Sex: SWISS/FEMALE) “skin: tumor”; (Carcinogen: 7,12-DIMETHYLBENZ[A]ANTHRACENE, 57-97-6, Doses [Carcinogen]: 52 UG IN 100 µL ACETONE ONCE, Doses [Promoter]: 0, 100 MG/KG BW IN 100 µL DMSO 3/WK FOR 51 WK BEGINNING 1 WK POST CARCINOGEN DOSE (STUDY DURATION: 52 WK), Route [Carcinogen]: DERMAL, Route [Promoter]: DERMAL, Species: MOUSE, Strain/Sex: SWISS/MALE) “skin: tumor”.
Consider `CC(=O)Nc1ccc2c(c1)C(=O)c1ccccc1-2`, for which the outcome (Carcinogen: DIETHYLNITROSAMINE, 55-18-5, Doses [Carcinogen]: 200 MG/KG BW IN 0.9% SALINE ONCE, Doses [Promoter]: 0, 0.1 MMOL/KG BW IN POLYETHYLENE GLYCOL FOR 5 D BEGINNING 1 WK POST CARCINOGEN DOSE, 70% HEPATECTOMY PERFORMED 3 D AFTE, Route [Carcinogen]: INTRAPERITONEAL, Route [Promoter]: GAVAGE, Species: RAT, Strain/Sex: SPRAGUE-DAWLEY/MALE) was “liver: hepatocellular carcinoma”.
`CN(C)CCC=C1c2ccccc2CCc2ccccc21`: the outcome (Carcinogen: 7,12-DIMETHYLBENZ[A]ANTHRACENE, 57-97-6, Doses [Carcinogen]: 20 MG IN 2 ML PEANUT OIL ONCE, Doses [Promoter]: 0, 80 MG/M2 5 D/WK FOR 15 WK BEGINNING POST CARCINOGEN DOSE (STUDY DURATION: 15 WK), Route [Carcinogen]: GAVAGE, Route [Promoter]: INTRAPERITONEAL, Species: RAT, Strain/Sex: SPRAGUE-DAWLEY/FEMALE) is listed as “mammary gland: tumor”.
